# Reference: patent publication US7662784B2, “Method for decreasing body weight using a somatostatin receptor agonist” (Ipsen Pharma, S.A.S., priority 1997, dated 2010)
# Bridge positions count the residues as written; N and C are the ends. Square brackets hold non-standard residues; d marks the D form. Peptide text beside a SMILES is read from it.
# Tests used:
# [1] = tested on: fatty (fa/fa) Zucker rats; experiment: Weight loss study, chronic (6 day) treatment in obese animal model
# [2] = tested on: Obese (fa/fa) Zucker rats; experiment: Secondary endpoints: plasma glycerol and triglycerides after 6-day treatment, oral glucose challenge; type: in vivo, rat
# Method: Obese (fa/fa) Zucker rats were treated as in example 1 above. On the last day of treatment (day 6), food was removed at 5:00 p.m., and the rats were fasted overnight. At 9:00 a.m. the next day, the animals were subjected to a glucose challenge, given as 0.8 gram/kg of glucose orally. Periodic 400 μl of blood samples were taken from the tail vein (Peterson, R. G., ILAR News, 32:16-19 (1990)) 60 min. and 30 min. before and at 30, 60, 90, and 120 min. after the administration of the glucose challenge (0.8 gram/kg orally). Aprotinin (Traysylol, Bayer UK, Hayward's Health, W. Sussex, U.K. and heparin (Sigma Chemical Co., Poole, Dorset, U.K.) were added to the blood samples to a final concentration of 400 KIU/ml and 100 units/ml, respectively. Plasma fractions were prepared from these samples by centrifugation at 4000×G in a microfuge, for the estimation of triglycerides and glycerol. Samples were then stored at −80° C. until assayed.
# Plasma glycerol and triglycerides were determined using the Sigma Enzymatic (Tinder) calorimetric assay kit (Cat #337-B, Sigma Chemical Co., Poole, Dorset, U.K.) and measuring absorbance at 540 nm in a spectrophotometer.
# [3] = 3 mg/kg s.c. twice a day for six days, fatty Zucker rats
# [4] = after six days at 3 mg/kg s.c. twice a day, samples 30 and 60 minutes before the oral glucose challenge
# [5] = throughout the 2-hour test period after oral glucose challenge (0.8 gram/kg)
smiles,measurement,setting,value
"C[C@@H](O)[C@@H]1NC(=O)[C@H](CCCCN)NC(=O)[C@@H](Cc2c[nH]c3ccccc23)NC(=O)[C@H](Cc2ccccc2)NC(=O)[C@H](Cc2ccccc2)NC(=O)[C@@H](N)CSSC[C@@H](C(N)=O)NC(=O)[C@H](Cc2ccccc2)NC1=O [BIM-23268, H-Cys-Phe-Phe-D-Trp-Lys-Thr-Phe-Cys-NH2] (H-CFF[dW]KTFC-NH2; disulfide 1-8)",amount of food consumed over the entire treatment period versus control,[1]; 3 mg/kg s.c. twice a day for six days,no difference
same,body weight gain versus control,[1]; [3],lower
same,toxic effect / appearance of treated group,[1]; [3],appeared healthy
same,average food consumption,"[1]; 3 mg/kg s.c. twice a day, 6-day treatment, control 26.0",25.9 g/rat/day
same,treated group's mean weight after six days,"[1]; male fatty Zucker rats, 3 mg/kg s.c. twice a day for six days, control 418.89",413.6
same,treated group's mean weight at the start of the trial,"[1]; male fatty Zucker rats, before 3 mg/kg s.c. twice a day, control 414.09",413.6
same,reducing hypertriglyceridemia,[2]; 6-day treatment period at the prescribed dose (3 mg/kg s.c. twice a day),effective in reducing hypertriglyceridemia
same,plasma glycerol,[2]; [4],significantly lowered
same,plasma triglycerides,[2]; [4],significantly lowered
same,plasma glycerol,[2]; [5],significantly lower
same,plasma triglycerides,[2]; [5],significantly lower
